For series [1] the following is noted: cited from earlier work.
The nature of series [2]: In vitro cisplatin release by dialysis. The series is classed as physicochemical. The conditions noted are these: PBS, 37° C. Here is the method: Cisplatin was bound to the carboxylate modified HPGs as described above with final polymer and cisplatin concentrations of 10 and 1 mg/mL, respectively. Into 7000 MWCO Slide-A-Lyzer mini dialysis units (Thermo Scientific, Rockford, Ill.), 20 μL of cisplatin bound polymer solution, or a 1 mg/mL solution of free cisplatin, were added and the samples were dialyzed at 37° C. with stirring against 4 L of 1 mM PBS adjusted to pHs of 4.5, 6.0, and 7.4 or synthetic urine at pH 7.0. Synthetic urine (Surine) was purchased from Dyna-Tek Industries (Lenexa, Kans.). At predetermined time points, three dialysis units were removed from the release media, and the entire contents were removed with three washings of the dialysis unit followed by dilution to 1 mL with fresh release media. The cisplatin concentration of contents of the dialysis units was determined by OPDA colorimetric assay. The cumulative percent drug released was calculated by subtracting the amount of drug remaining from the initial amount of drug in the dialysis bag at the beginning of the experiment. The data were expressed as cumulative percentage of drug released as a function of time.

In series [3] the test system is KU-7-luc bladder cancer cells. Nature of the series: Cytotoxicity evaluation, MTS cell proliferation assay. The conditions noted are these: cisplatin concentration. The series is classed as cell-based. As to the method: Cytotoxicity studies were performed using the MTS cell proliferation assay (Promega, Madison, Wis.). […] In this study, KU-7-luc bladder cancer cells, kindly provided by Dr. M. Tachibana (Keio University, Tokyo, Japan). The cells were plated at 5000 cells/well into 96-well plates in 180 μL of Dulbecco's modified Eagle (DMEM) medium (Invitrogen Canada, Inc., Burlington, ON) supplemented with 10% fetal bovine serum (FBS) (Invitrogen Canada, Inc., Burlington, ON), 1% penicillin-streptomycin, and 1% L-glutamine and allowed to grow for 24 h at 37° C. in 5% CO2 to reach approximately 80% confluence for cytotoxicity assays. Cells were then incubated for 2 or 72 h with HPGs alone, ranging from 0.01-100 mg/mL, or free cisplatin or cisplatin-loaded HPGs with drug concentrations ranging from 0.01-100 μg/mL. After treatment, the cells were washed twice with Hank's balanced salt solution (HBSS) and 180 μL of fresh culture media was added into each well and cells were allowed to grow for 72 h. Proliferation of these cells was measured using a CellTiter 96 aqueous non-radioactive cell proliferation assay (Promega, Madison, Wis.) as described previously (Mugabe, C.; Hadaschik, B. A.; Kainthan, R. K.; Brooks, D. E.; So, A. I.; Gleave, M. E.; Burt, H. M. BJU Int. 2009, 103, 978-986). […] The absorbance was measured at 490 nm with a reference of 620 nm using a microplate reader.
On the technique in general: Tetrazolium assays rely on reduction of a dye to a coloured formazan, in cell work by metabolically active cells.

A word on the aqueous solubility: it is the concentration that dissolves in the medium under given conditions. As usually defined, the IC50 is the concentration that gives 50% inhibition. A high value points to weaker potency.

In brackets after ≈: the same amount, converted by molar mass.

For the compound `CC(=O)O[C@@]12CO[C@@H]1C[C@H](O)[C@@]1(C)C(=O)[C@H](O)C3=C(C)[C@@H](OC(=O)[C@H](O)[C@@H](NC(=O)OC(C)(C)C)c4ccccc4)C[C@@](O)([C@@H](OC(=O)c4ccccc4)[C@H]21)C3(C)C` [DTX, docetaxel], in series [1], the aqueous solubility was ~7 µg/mL (≈ 8.66 µM).
For `N.N.[Cl][Pt][Cl]` [free cisplatin, cisplatin], in series [2], the “time to 100% complete release” value was ≤ 7 h. Further, the IC50 entry was “approximately 10 μg/mL” in series [3] (2 h incubation) and 1 µg/mL in series [3] (72 h incubation).

The values are drawn from patent publication US9561278B2, “Derivatized hyperbranched polyglycerols” (THE UNIVERSITY OF BRITISH COLUMBIA, priority 2010, dated 2017).
